The values that follow come from US20060189530A1 (Bayer Corporation, priority 1996, published 2006).

Test [1] deals with T1, rat NPY Y5 receptor (6B clone) (Rattus norvegicus, UniProt Q63634, L61P).
T1 construct: expressed in transfected cells; host or cells: COS-7 (transient), membranes
T1 sequence (Q63634 1-445 L61P): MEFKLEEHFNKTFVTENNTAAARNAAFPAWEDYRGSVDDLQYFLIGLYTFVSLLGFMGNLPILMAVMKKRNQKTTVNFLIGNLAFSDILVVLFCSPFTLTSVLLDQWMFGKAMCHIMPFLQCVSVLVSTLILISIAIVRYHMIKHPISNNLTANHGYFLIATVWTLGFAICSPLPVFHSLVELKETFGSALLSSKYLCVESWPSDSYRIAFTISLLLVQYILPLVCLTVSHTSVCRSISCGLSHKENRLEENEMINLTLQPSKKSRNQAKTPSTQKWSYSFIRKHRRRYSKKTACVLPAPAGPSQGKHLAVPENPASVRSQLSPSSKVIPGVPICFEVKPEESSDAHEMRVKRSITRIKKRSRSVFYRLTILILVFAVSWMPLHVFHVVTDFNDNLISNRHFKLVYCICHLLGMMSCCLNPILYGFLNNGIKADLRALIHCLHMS
The experiment in a line: [125I]PYY competition binding, rat Y5 6B clone transiently expressed in COS-7 membranes. As to conditions: transient COS-7 membranes, ± SEM, read-out: NPY Y5 binding affinity Ki, RAT 6B Clone.
Procedure: Cells at 70% confluency were transfected with Y5 DNA using the Lipofectamine method (GIBCO-BRL). 15 μg DNA and 90 μl Lipofectamine were added to each flask. Media was completely replaced 24 hours post transfection, and membranes were harvested 24 hours later.
The media was removed from each flask of transfected cells, and the cells were washed twice with 20 ml ice-cold phosphate buffered saline. The cells were scraped from the flask in 5 ml of Tris buffer (20 mM Tris-HCl and 5 mM EDTA, pH 7.7), and then transferred to a centrifuge tube. Each flask was washed with an additional 5 ml of Tris buffer and combined in the centrifuge tube. The cells were polytroned for 2×10 seconds (12 mm probe, 7000-8000 rpm) and centrifuged 5 minutes (Centra 7R, International Equipment Co., Needham Heights, Mass.) at 800 rpm and 4° C. […] Protein concentration was measured using the Bio-Rad kit pursuant to the standard manufacturer's protocol (Biorad Laboratories, Hercules, Calif.),with bovine IgG as the standard. […]
(§1) After a 2 hour incubation at room temperature with constant mixing, the samples were aspirated on a vacuum manifold. […] The individual wells were punched into 12×75 mm plastic tubes, and counted on a Wallac (Gaithersburg, Md.) gamma counter. Binding data were analyzed using the nonlinear regression curve-fitting program RS/1 (BBN Software Products Corp., Cambridge, Mass.). […]

The target of test [2] is T2, human NPY Y5 receptor (Homo sapiens, UniProt Q15761).
T2 construct: containing the full length open reading frame encoding the receptor; expressed in transfected cells
T2 sequence (Q15761 1-445): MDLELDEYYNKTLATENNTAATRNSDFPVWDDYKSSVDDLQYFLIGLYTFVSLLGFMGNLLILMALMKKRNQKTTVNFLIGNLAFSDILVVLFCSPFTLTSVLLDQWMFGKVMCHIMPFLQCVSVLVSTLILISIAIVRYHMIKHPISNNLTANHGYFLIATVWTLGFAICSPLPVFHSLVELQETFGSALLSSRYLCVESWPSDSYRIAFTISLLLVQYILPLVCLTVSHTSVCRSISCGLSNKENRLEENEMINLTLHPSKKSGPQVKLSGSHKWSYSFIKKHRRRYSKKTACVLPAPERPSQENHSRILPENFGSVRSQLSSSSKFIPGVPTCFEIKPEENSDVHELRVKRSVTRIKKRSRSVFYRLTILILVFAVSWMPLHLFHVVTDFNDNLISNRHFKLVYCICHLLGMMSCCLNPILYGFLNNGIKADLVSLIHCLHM
The test is described as follows: [125I]PYY competition binding, human Y5 clone transiently expressed in COS-7 membranes. The settings on record: transient COS-7 membranes, ± SEM, read-out: NPY Y5 binding affinity Ki, HUMAN Clone.

The target in test [3] is T3, rat NPY Y5 receptor (Y861 clone) (Rattus norvegicus, UniProt Q63634).
T3 sequence (Q63634 1-445): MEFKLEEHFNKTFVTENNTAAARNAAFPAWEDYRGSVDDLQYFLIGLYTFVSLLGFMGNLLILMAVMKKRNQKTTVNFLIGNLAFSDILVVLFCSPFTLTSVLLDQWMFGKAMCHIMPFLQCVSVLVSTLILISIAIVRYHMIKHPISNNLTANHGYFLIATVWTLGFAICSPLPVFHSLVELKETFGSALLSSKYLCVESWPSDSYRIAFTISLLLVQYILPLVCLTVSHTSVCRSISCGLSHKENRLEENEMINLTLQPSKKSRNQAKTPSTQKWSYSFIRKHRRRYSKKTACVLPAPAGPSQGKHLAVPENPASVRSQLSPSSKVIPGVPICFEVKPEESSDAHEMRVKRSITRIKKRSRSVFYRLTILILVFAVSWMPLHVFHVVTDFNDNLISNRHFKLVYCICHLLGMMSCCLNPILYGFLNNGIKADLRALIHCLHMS
The experiment in a line: [125I]PYY competition binding, rat Y5 Y861 clone transiently expressed in COS-7 membranes. As to conditions: transient COS-7 membranes, ± SEM, read-out: NPY Y5 binding affinity Ki, RAT Y861 Clone. Details: expressed in transfected cells; host or cells: COS-7 (transient), membranes.
Procedure: Monkey kidney cells (COS-7) were maintained in T-175 cm^2 flasks (NUNC) at 37° C. with 5% CO2 in a humidified atmosphere. Cells were grown in Dulbecco's Modified Eagle Medium (DMEM) supplemented with 2 mM glutamine, 10% fetal bovine serum, 1 mM sodium pyruvate, and antibiotic/antimycotic. Cells at 70% confluency were transfected with Y5 DNA using the Lipofectamine method (GIBCO-BRL). 15 μg DNA and 90 μl Lipofectamine were added to each flask. Media was completely replaced 24 hours post transfection, and membranes were harvested 24 hours later.
The media was removed from each flask of transfected cells, and the cells were washed twice with 20 ml ice-cold phosphate buffered saline. The cells were scraped from the flask in 5 ml of Tris buffer (20 mM Tris-HCl and 5 mM EDTA, pH 7.7), and then transferred to a centrifuge tube. […] Protein concentration was measured using the Bio-Rad kit pursuant to the standard manufacturer's protocol (Biorad Laboratories, Hercules, Calif.),with bovine IgG as the standard. […]
as §1

For test [4], the system named is food intake of Wistar rats. The experiment in a line: In vivo feeding after ICV injection in rats. Further details: species or system rat. As to conditions: for Feeding: ICV, 1-6 nmoles peptide, chow consumed in 2 hours; for Feeding response in rats (in words): in vivo feeding model.
Procedure: Adult male Wistar rats were surgically implanted with a chronic intracerebral ventricular (ICV) cannula (Plastic Products, Roanoke, Va.) using a stereotaxic instrument. Several days after the surgery, 1-6 nmoles of each peptide (or saline) was injected into the lateral ventricle of 4-12 rats in a volume of 5-10 μl. The quantity of rodent chow consumed in a 2 hour period was measured.
The next test deals with T4, Rat Y1 (clone) (Rattus norvegicus, UniProt P21555).
T4 sequence (P21555 1-382): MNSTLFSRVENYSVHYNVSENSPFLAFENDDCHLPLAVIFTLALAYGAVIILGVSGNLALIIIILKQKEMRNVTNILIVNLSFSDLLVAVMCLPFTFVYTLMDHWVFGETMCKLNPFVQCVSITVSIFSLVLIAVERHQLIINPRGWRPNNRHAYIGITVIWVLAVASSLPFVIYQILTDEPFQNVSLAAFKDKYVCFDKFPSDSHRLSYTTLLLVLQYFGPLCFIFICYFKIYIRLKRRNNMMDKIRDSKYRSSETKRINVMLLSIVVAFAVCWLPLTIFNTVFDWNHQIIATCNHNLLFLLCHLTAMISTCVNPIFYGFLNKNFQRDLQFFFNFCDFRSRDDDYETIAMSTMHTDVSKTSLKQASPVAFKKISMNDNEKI
The test is described as follows: [125I]PYY binding assay for rat Y1 receptor.

Another test concerns the target T5, Rat Y2 (clone) (Rattus norvegicus, UniProt Q9ERC0).
T5 sequence (Q9ERC0 1-381): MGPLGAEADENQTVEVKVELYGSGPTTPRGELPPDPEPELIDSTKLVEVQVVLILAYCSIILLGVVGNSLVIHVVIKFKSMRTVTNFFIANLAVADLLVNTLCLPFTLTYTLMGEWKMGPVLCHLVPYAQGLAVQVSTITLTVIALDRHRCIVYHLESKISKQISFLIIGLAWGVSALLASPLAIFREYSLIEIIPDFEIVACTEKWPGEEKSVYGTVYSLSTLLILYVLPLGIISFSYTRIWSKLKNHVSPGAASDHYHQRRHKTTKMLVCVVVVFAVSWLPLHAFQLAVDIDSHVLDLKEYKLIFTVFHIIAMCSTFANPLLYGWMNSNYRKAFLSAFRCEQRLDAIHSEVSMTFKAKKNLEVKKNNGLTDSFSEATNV
The test is described as follows: [125I]PYY binding assay for rat Y2 receptor.

Test [5] concerns the target T6, human NPY Y5 receptor (human, UniProt Q15761 1-445).
T6 construct: also called HUMAN Clone
T6 sequence: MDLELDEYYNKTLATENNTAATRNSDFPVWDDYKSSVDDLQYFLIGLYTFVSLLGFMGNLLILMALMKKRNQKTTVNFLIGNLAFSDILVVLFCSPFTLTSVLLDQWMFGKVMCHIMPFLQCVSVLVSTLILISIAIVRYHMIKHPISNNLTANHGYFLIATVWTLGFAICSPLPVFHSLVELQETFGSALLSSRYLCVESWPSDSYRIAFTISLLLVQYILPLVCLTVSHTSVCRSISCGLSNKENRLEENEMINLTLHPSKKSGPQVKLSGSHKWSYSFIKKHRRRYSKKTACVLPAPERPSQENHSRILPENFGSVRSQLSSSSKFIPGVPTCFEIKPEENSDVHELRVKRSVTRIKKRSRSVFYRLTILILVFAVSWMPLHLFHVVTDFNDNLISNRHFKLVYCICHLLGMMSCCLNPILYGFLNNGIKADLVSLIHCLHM
The test is described as follows: [125I]PYY competition, membranes of stable 293 clone 293.hY5.sb.8.

Test [6] addresses T7, rat NPY Y5 receptor, Y861 clone (rat, UniProt Q63634 1-445).
T7 sequence: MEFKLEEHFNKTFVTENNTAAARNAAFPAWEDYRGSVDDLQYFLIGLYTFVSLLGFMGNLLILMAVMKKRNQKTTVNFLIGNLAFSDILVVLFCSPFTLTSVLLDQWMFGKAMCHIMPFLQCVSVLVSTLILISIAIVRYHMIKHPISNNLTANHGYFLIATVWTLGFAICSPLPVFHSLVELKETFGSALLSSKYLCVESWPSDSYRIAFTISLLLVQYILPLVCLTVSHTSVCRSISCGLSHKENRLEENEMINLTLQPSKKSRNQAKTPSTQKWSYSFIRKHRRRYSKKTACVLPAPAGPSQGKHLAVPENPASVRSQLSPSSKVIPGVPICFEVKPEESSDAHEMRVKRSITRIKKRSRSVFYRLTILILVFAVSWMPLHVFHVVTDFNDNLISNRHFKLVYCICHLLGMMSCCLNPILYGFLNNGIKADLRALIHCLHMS
The experiment in a line: [125I]PYY competition, membranes of stable 293S clone 293S.Y861.2.

For test [7], the target named is T6, human NPY Y5 receptor. The experiment in a line: [125I]PYY competition, membranes of transiently transfected COS-7 cells; individual experiment.
Procedure: The binding assays were performed on GF/C Millipore (Bedford, Mass.) 96-well plates pretreated with 0.02% polyethylenimine (PEI) for at least 2 hours prior to use. The PEI was aspirated from the plates on a vacuum manifold immediately before the samples were added to the wells. All peptides, tissue and radioligand were diluted with binding buffer (25 mM Tris, 120 mM NaCl, 5 mM KCl, 1.2 MM KH₂PO₄, 2.5 mM CaCl₂, 1.2 mM MgSO₄, 0.1% BSA and 0.5 mg/ml bacitracin, pH 7.4).
After a 2 hour incubation at room temperature with constant mixing, the samples were aspirated on a vacuum manifold. The wells were washed with three 200 μl aliquots of ice-cold binding buffer. The individual wells were punched into 12×75 mm plastic tubes, and counted on a Wallac (Gaithersburg, Md.) gamma counter. Binding data were analyzed using the nonlinear regression curve-fitting program RS/1 (BBN Software Products Corp., Cambridge, Mass.).
Each point is the average value of triplicate determinations from a representative experiment. […] Kᵢ values were calculated from the IC₅₀ values using the Cheng-Prusoff correction, such that Kᵢ=IC₅₀/(1±(L/Kd)), where L is the radioligand concentration and Kd is the dissociation constant.
Test [8] addresses T7, rat NPY Y5 receptor, Y861 clone. The experiment in a line: cell-based or functional assay.

Values joined by “and” are separate entries in the source; they are usually repeats but may differ in a detail not shown here. Equal values may be shown once. Ends that are not written are not given here.

Take `NC(N)=NCCC[C@@H](NC(=O)C(c1ccccc1)c1ccccc1)C(=O)NCc1ccc(O)cc1` [BIBP3226]: the inhibition constant (Ki) (in [1]; at human NPY Y5 receptor [2]; in test [3]) was over 1000 nM each time.

The molecule (2-36)NPY [r/h(2-36)NPY] came in with a Feeding in test [4] of over 5 g/2 h.

(3-36)NPY [p(3-36)NPY]: the “Affinity for Y1 receptor (in words)” value at Rat Y1 (clone) is on record as “much weaker”. Besides, on Rat Y2 (clone), the “Affinity for Y2 receptor (in words)” value is on record as “binds preferentially”. In test [4], the Feeding was over 5 g/2 h and the “Feeding response in rats (in words)” value is given as “stimulate feeding”.

In the case of (10-36)NPY [r/h(10-36)NPY], the Feeding in test [4] was under 3 g/2 h.

As for (13-36)PYY (peptide), the Ki with human NPY Y5 receptor [5] turned out to be 24 nM; in test [6], 29 nM.

In turn, (18-36)NPY [p(18-36)NPY] displayed a Feeding in test [4] of under 3 g/2 h.

Take (20-36)NPY [r/h(20-36)NPY]: in [4], the Feeding is on record as under 3 g/2 h and the “Feeding response in rats (in words)” value is given as “do not elicit feeding”.

(22-36)NPY [r/h(22-36)NPY] showed a Feeding in [4] of under 3 g/2 h.

(26-36)NPY [r/h(26-36)NPY]: in [4], the Feeding is on record as under 3 g/2 h.

Take (Leu^31Pro^34)(3-36)NPY [(LP)(3-36)NPY]: in test [4], the Feeding is listed as over 5 g/2 h and the “Feeding response in rats (in words)” value is given as “stimulates feeding”.

Take (Leu^31Pro^34)NPY [p(LP)NPY]: in [4], the Feeding was over 5 g/2 h and the “Feeding response in rats (in words)” value is reported as “stimulate feeding”.

(Leu^31Pro^34)PYY [h(LP)PYY]: the Feeding in test [4] is given as over 5 g/2 h.

In test [4], Neuropeptide Y [r/hNPY] showed a Feeding of over 5 g/2 h.

B1: r(13-36)NPY (peptide, UniProt P07808 42-65, looked up)
peptide: PAEDMARYYSALRHYINLITRQRY
modifications: ends and bridges not checked
notes: range 13-36; it may be a misprint for r(13-36)PYY (rat NPY is elsewhere written r/h)
Regarding B1, in the test with human NPY Y5 receptor [7], the inhibition constant Ki is 89 nM and 65 nM.

B2: hPP (human pancreatic polypeptide) (peptide, UniProt P01298 30-65, looked up)
peptide: APLEPVYPGDNATPEQMAQYAADLRRYINMLTRPRY
With B2, the “EC50, forskolin-stimulated adenylate cyclase (cAMP), 293S.Y861.2 cells” value in test [8] stood at 1 nM.
